Target: T1, Smoothened (Smo) (Homo sapiens, UniProt Q99835)
T1 construct: wild-type human Smo overexpressed in C3H10T1/2 cells
Test: BODIPY-cyclopamine competition binding on Smo-expressing cells, flow cytometry
Assay type: cell-based

T1 sequence (Q99835 28-787): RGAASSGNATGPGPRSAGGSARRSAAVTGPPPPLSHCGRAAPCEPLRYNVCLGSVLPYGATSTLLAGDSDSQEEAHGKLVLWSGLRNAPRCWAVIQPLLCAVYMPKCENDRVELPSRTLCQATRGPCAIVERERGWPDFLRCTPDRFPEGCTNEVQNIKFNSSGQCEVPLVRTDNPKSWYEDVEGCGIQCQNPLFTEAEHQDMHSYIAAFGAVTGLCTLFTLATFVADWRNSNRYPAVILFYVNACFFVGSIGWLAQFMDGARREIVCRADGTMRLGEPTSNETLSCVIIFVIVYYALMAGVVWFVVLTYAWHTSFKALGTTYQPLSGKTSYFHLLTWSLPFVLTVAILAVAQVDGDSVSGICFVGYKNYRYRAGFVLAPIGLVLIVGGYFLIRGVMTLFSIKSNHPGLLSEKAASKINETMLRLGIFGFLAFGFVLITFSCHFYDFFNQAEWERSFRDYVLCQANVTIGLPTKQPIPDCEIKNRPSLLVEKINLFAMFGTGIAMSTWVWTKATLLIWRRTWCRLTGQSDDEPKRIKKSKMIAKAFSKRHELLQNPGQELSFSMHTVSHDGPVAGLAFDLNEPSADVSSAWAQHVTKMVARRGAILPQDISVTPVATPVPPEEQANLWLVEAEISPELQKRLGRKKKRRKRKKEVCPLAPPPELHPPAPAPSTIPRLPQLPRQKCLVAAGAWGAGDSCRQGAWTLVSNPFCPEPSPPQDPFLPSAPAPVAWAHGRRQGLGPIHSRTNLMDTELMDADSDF

## CC1=C2C[C@H]3[C@@H](CC[C@@H]4C[C@H](NS(C)(=O)=O)CC[C@@]43C)[C@@H]2CC[C@@]2(C1)O[C@@H]1C[C@H](C)CN[C@H]1[C@H]2C [IPI-926]
  EC50: 1 nM
